PMC12040169 (PLOS Biology, 2025)

Test: in vitro
Details: human, hela cells, % viability

Compound | viability at 28.5 h, 10 µM
CCC(C(=O)N1CCC(C(=O)c2cccnc2)CC1)c1ccccc1 (centres unmarked) [CBK283525] | 91.1%
O=C(c1cccnc1)C1CCN(C(=O)c2cccs2)CC1 [CBK283528] | 102%
Cc1cc(C)n(CCC(=O)N2CCC(c3ccncc3)CC2)n1 [CBK283529] | 94.1%
Cc1ncsc1C(=O)N1CCCCC1c1nc2ccccc2[nH]1 (centres unmarked) [CBK283531] | 95.9%
CC(c1ccccc1)c1nc2cnccn2c1NC(C)(C)C (centres unmarked) [CBK283533] | 92.3%
COCCn1c(=O)n(CC=C(C)C)c2cccnc21 [CBK283534] | 92.1%
Cn1ccnc1C1(O)CCN(C(=O)c2ccccc2F)CC1 [CBK283536] | 105%
O=C(Cc1cccnc1)N1CCC(O)(c2cccc(F)c2)CC1 [CBK283537] | 95.9%
Cc1ccc2cc3c(nc2c1)OCC(=O)N(Cc1ccco1)C3 [CBK283539] | 92.9%
c1coc(CNc2c(-c3cccs3)nc3cnccn23)c1 [CBK283540] | 93.2%
Cn1ccnc1C1(O)CCN(C(=O)CCc2ccccc2)CC1 [CBK283542] | 92%
Cn1ccnc1C1(O)CCN(C(=O)c2cc(F)cc(F)c2)CC1 [CBK283544] | 102%
O=C(C1CCC1)N1C2CCC1CC(O)(c1ccc(F)cc1)C2 (centres unmarked) [CBK283547] | 92.5%
O=C(CN1CCC(c2ccccc2F)CC1)NCc1ccco1 [CBK283550] | 88.3%
O=C(CN1CCC(c2ccccc2F)CC1)NC1CCCC1 [CBK283551] | 97.4%
Cn1ccnc1C1(O)CCN(C(=O)c2ccc(F)cc2F)CC1 [CBK283552] | 103%
O=C(c1cccc(Cl)c1)N1CCC(O)(c2cccnc2)CC1 [CBK283553] | 93.2%
O=C(Cn1ncc2cccn2c1=O)OCC(F)(F)F [CBK283554] | 93.7%
Cc1nn(CC(=O)N2C(C)CCCC2C)c(=O)c2cc3occc3n12 (centres unmarked) [CBK283555] | 80.8%
Cc1ccc(C2=CCN(CC(=O)N3CCCCC3C)CC2)o1 (centres unmarked) [CBK283556] | 86.8%
COc1ccc(C2CCN(CC(=O)NC(C)(C)C)CC2)cc1 [CBK283558] | 92.7%
CCN(CC)C(=O)CN1CCC(c2ccc(OC)cc2)CC1 [CBK283559] | 102%
C=CCNC(=O)CN1CCC(c2ccc(OC)cc2)CC1 [CBK283560] | 106%
COc1ccc(C2CCN(CC(=O)N3CCCC3)CC2)cc1 [CBK283561] | 101%

Compound | viability at 28.5 h, 10 µM
COc1ccc(C2CCN(Cc3cccnc3)CC2)cc1 [CBK283564] | 96.1%
Cc1ccc(C2=CCN(S(=O)(=O)c3ccc(F)cc3)CC2)o1 [CBK283571] | 93%
COc1ccc(CC(=O)N2CC=C(c3ccc(C)o3)CC2)cc1 [CBK283572] | 92.4%
O=C(Cc1ccc(F)cc1)N1CCC(n2cnc3cccnc32)CC1 [CBK283574] | 91.1%
CCc1nn(CC(=O)N(C)C)c(=O)c2cc3oc(C)cc3n12 [CBK283576] | 114%
O=C(CN1CCC(c2ccccc2F)CC1)Nc1nccs1 [CBK283579] | 106%
CC(c1cccc(F)c1)n1cc(C(=O)NCCc2ccco2)nn1 (centres unmarked) [CBK283582] | 102%
CCc1nn(CC(=O)N2CCCC2)c(=O)c2cc3oc(C)cc3n12 [CBK283584] | 110%
Cn1ccnc1C1(O)CCN(C(=O)Cc2ccccc2F)CC1 [CBK283585] | 97.6%
O=C(Cc1cccc(F)c1)N1CCC(O)(c2ccccn2)CC1 [CBK283586] | 100%
O=C(Cc1cccs1)N1CCC(O)(c2ccccn2)CC1 [CBK283587] | 96.4%
O=C(Cc1ccc(F)cc1)N1CCC(O)(c2ccccn2)CC1 [CBK283588] | 97%
Cc1cc2c(cc3c(=O)n(CC(=O)N4CCC(C)CC4)nc(C)n32)o1 [CBK283590] | 90.1%
Cc1nc2cccnc2n1CCNC(=O)Cc1cccs1 [CBK283592] | 107%
Cc1nc2cccnc2n1CCNC(=O)c1cccc(Cl)c1 [CBK283593] | 97.9%
Cc1ccc2nc3c(cc2c1)CN(Cc1ccco1)C(=O)CO3 [CBK283594] | 103%
O=C(NC1(c2ccc(F)cc2)CCCC1)c1cnccn1 [CBK283595] | 85.1%
CCOc1ccc(CC(=O)N2CCC(c3ccncc3)CC2)cc1 [CBK283596] | 87.8%
O=C1CC2(CCN(C(=O)N3CCCC3)CC2)Oc2ccc(F)cc21 [CBK283597] | 84.9%
COc1ccccc1[C@@H]1C[C@H](OC(=O)c2ccc(F)cc2)C(=O)N1C [CBK283598] | 92%
Cc1ccc2c(c1)C(=O)CC1(CCN(C(=O)OC(C)(C)C)CC1)O2 [CBK283599] | 98%
COc1cccc(C2(NC(=O)CCn3nccc3C)CCCC2)c1 [CBK283601] | 101%
CN1CC=C(/C=C/c2c[nH]c3ccccc23)CC1 [CBK283602] | 89.4%
